Experimental data reported in article PMC8961585, “Inhibition of Polyglutamine Misfolding with D-Enantiomeric Peptides Identified by Mirror Image Phage Display Selection” (Biomolecules, 2022).

Experiments:
L-ARQ46 [1] = molecular target: T1, L-ARQ46 (Homo sapiens, UniProt P10275); test: ThT aggregation assay, monomeric ARQ46, unseeded; assay type: biochemical
T1 construct: L-ARQ46; purchased peptides & elephants GmbH (Henningsdorf, Germany); host or cells: chemical synthesis
Procedure: (§1) Following the disaggregation protocol that Chen et al. published, the polyglutamine proteins were incubated for three days in 1:1 TFA/Hexafluoroisopropanol (HFIP) or overnight in 100% trifluoroacetic acid (TFA). Afterwards the solvent was evaporated with N2 gas treatment and the polyglutamine protein redissolved in the experiment buffer.
(§2) Thioflavin T (ThT) assays were performed to monitor the time-dependent formation of amyloidogenic aggregates. The assays were performed at 37 °C in TBS pH 7.5 (15 µM ThT) with 300 rpm double orbital shaking. All buffers were sterile filtrated beforehand. Polyglutamine proteins were disaggregated as described before. The peptides were pre-diluted in TBS pH 7.5. The disaggregated polyglutamine protein in buffer was mixed with 15 µM ThT and the pre-diluted peptides in a 96-well half-area flat-bottom microplate (Corning, New York, NY, USA). During the experiment all wells contained 100 µL ThT solution. Sealing the plate with foil (Thermo Fisher Scientific, Waltham, MA, USA) helped to prevent evaporation. The progression of fluorescence intensity was tracked by a microplate reader (BMG Labtech, Ortenberg, Germany).
The lag-time was estimated as follows: the average variation of the curve was determined with the last ten values of the steady state. […]
The progression of fluorescence intensity was measured every 30 min at λex = 410 nm and λem = 482 nm with 30 s agitation at 300 rpm before every measurement. (A) Fluorescence intensity measured at 90 h of the aggregation assay starting with 15 µM monomeric ARQ46 without peptide and with 15 µM QF2D-1, QF2D-2, QF2D-3, QF2D-4, QF2D-5, QF2D-6, QF2D-7, QF2D-8 or QF2D-9. […] The mean fluorescence intensity is shown for each time point. […]
Figure 8 Effect of different QF2D-2 concentrations on the aggregation of ARQ46; ThT assay with L-ARQ46 was performed at 37 °C in TBS pH 7.5. The progression of fluorescence intensity was measured every 30 min at λex = 410 nm and λem = 482 nm with 30 sec agitation at 300 rpm before every measurement. […] The mean fluorescence intensity is shown for each time point. […]

L-ARQ46 [2] = molecular target: T1, L-ARQ46; test: ThT aggregation assay of ARQ46 seeded with soluble aggregate fragments; assay type: biochemical; details: 15 µM ARQ46
Procedure: as §1, §2
For seeded experiments, the slope of the curve was considered instead of the lag-time because seeding eliminated the lag-time. The slope was determined by plotting the first values and fitting with a linear fit. The considered period (2 to 3.5 h) was similar for the curves compared with.
The disaggregated ARQ46 was diluted to 300 µM and incubated at 37 °C, 400 rpm. After 24 h large, white aggregates were visible in the tube. The sample was sonicated (Sonopuls, Bandelin electronic GmbH & Co. KG, Berlin, Germany) four times for 15 s with an amplitude of 60%. Between the sonification steps the sample was cooled on ice. Post sonification the sample was turbid. It was centrifuged at 100,000 g for 1 h at 4 °C to remove insoluble aggregates from the solution. The clear supernatant was used for seeding with soluble aggregate fragments.
Figure 5 QF2D-1, QF2D-2 and QF2D-6 inhibit the aggregation of ARQ46 in presence of soluble aggregate fragment seeds; ARQ46 was aggregated, and the solution was subject to spinning at 100,000 g in an ultracentrifuge. The supernatant was preincubated with 15 µM and 7.5 µM of one of the selected compounds in TBS at 37 °C. After 23 h, 15 µM monomeric ARQ46 were added, and the fluorescence intensity was measured every 15 min at λex = 448 nm and λem = 482 nm with agitation at 300 rpm between measurements. P8 served as a control compound that was not selected on polyglutamine, whereas QBP1 is claimed to bind polyglutamine tracts and inhibit polyglutamine-driven aggregation. (A) Fluorescence intensity of P8, QBP1, QF2D-1, QF2D-2 and QF2D-6 in equimolar and sub stoichiometric ratio at 90 h. (B) The data points acquired between 24 h and 26 h- shortly after monomer addition- were fitted with a linear fit. The slope was compared. (C) Measurement example of the described ThT-assay with ARQ46 (black), P8 (light grey), QBP1 (grey) and QF2D-2 (dark grey). The mean fluorescence intensity is shown for each time point. The experiment was performed in two-fold determination.

[3] = Spontaneous aggregation of polyglutamine peptides (ThT); assay type: physicochemical; details: no inhibitor, TBS pH 7.5, 37 °C
Procedure: as §1, §2
(§3) Figure 1 Disaggregation of ARQ46; Examination of ARQ46 post disaggregation. […] (B) ThT-Measurement of 15 µM ARQ46, disaggregated with 1:1 TFA/HFIP, in TBS pH 7.5 measured at 37 °C.

[4] = CD secondary structure of polyglutamine peptides; assay type: physicochemical
Procedure: as §1
After disaggregation, polyglutamine proteins were dissolved in TBS pH 7.5 and measured in a quartz crystal cuvette with 1 mm light path (Hellma Analytics, Müllheim, Germany) in a CD spectrometer (J-1100, Jasco Deutschland GmbH, Pfungstadt, Germany) with 4 acquisitions. The High tension voltage (HT) was monitored throughout the experiment. Data for which the HT exceeded 600 V were excluded. Buffer measurements served as references. Analogous, samples containing 50 µM ARQ46 and 50 µM QF2D-1 or QF2D-2 were measured and referenced with the measurement of 50 µM QF2D-1 or QF2D-2 alone. […] The CD spectra of the samples were monitored after 24 h, 48 h and 168 h of aggregation.
as §3
Figure 2 CD-spectrum of D-ARQ23 disaggregated with 100% TFA; Prior to the phage display selection D-ARQ23 was disaggregated with TFA to ensure selection on monomeric target. CD-spectrum was recorded in 10 mM Tris pH 8.

L-ARQ46 [5] = molecular target: T1, L-ARQ46; test: SPR binding to immobilized L-ARQ46; details: L-ARQ46 immobilized on CM5 chip via amine coupling (1400 RU); steady state affinity fit; TBS pH 7.5, 0.05% Tween, 25 °C; multi-cycle, up to 20 µM; data not shown
Procedure: Binding studies were performed with surface plasmon resonance (SPR) in a Biacore T200 device (Biacore, GE Healthcare, Uppsala, Sweden). The L-ARQ46 was immobilized on a CM5 Chip via amine coupling (1400 RU). The selected D-enantiomeric peptide compound QF2D-2 was dissolved in the running buffer (TBS pH 7.5 with 0.05% Tween) and served as the analyte in multi-cycle experiments, with the highest peptide concentration being 20 µM. Experiments were performed at 25 °C with a flow rate of 45 µL/min. After a contact time of 110 s and a dissociation time of 400 s, the surface was regenerated with low pH (Glycin-HCl, pH 2.2) for 30 s with a flow rate of 30 µL/min. The data were evaluated via affinity fit of the steady state using the biacore evaluation software.

[6] = system: polyglutamine disease mouse model; parameters: method as in PMID 18603372, PMID 23226463, PMID 23504628; details: cited from earlier work
Drosophila = system: Drosophila; parameters: method as in PMID 12761040; details: cited from earlier work
polyglutamine proteins = details: cited from earlier work
Excerpt: Patients suffering from polyglutamine diseases present with aggregates in their neurons before symptom onset and therefore probably also before treatments start. Thus, a promising drug candidate should inhibit the aggregation in presence of pre-formed aggregates. […] The effects of the compounds were compared with two controls. The first, P8, has been selected on SOD1 and should not bind to polyg ...

[7] = soluble aggregate seeds, slope 24 to 26 h, peptide concentration not stated (15 or 7.5 µM)

T1 sequence (P10275 with tags, fused parts or gaps): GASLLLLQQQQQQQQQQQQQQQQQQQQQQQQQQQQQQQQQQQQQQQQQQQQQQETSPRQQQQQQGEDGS

Compound: YDTPKHKDKTWPMM [P8]
- Effect on aggregation of monomeric ARQ46, equimolar (repeat with controls) (L-ARQ46 [1]; unseeded, equimolar, data not shown): slight inhibiting effect
- Slope of ThT curve after monomer addition (24 to 26 h), in words (L-ARQ46 [2]; 15 or 7.5 µM peptide preincubated 23 h with soluble seeds, TBS, 37 °C, two-fold determination): the steepest
- Lag-phase in presence of soluble aggregates (L-ARQ46 [2]; soluble aggregate fragment seeds, TBS, 37 °C, two-fold determination): no lag-phase observable

Compound: L-ARQ46: androgen receptor fragment with 46 consecutive glutamine residues
- Spontaneous aggregation [3]: spontaneously formed amyloid fibrils after few hours lag time
- Beta-sheet structure after incubation ([4]; TBS pH 7.5, 37 °C, 400 rpm, 24 h): 100%
- Secondary structure after disaggregation ([4]; freshly disaggregated (100% TFA)): a mixture of random coil and alpha-helical structure

Compound: C[C@H](O)[C@@H](NC(=O)[C@@H](CO)NC(=O)[C@@H](Cc1c[nH]c2ccccc12)NC(=O)[C@@H](CCC(N)=O)NC(=O)[C@@H](CO)NC(=O)[C@@H](CCC(N)=O)NC(=O)[C@H](N)CO)C(=O)N1CCC[C@@H]1C(=O)N[C@H](CCC(N)=O)C(=O)NCC(=O)N[C@H](CCCCN)C(=O)N[C@H](Cc1c[nH]c2ccccc12)C(=O)N[C@H](CO)C(=O)N[C@H](Cc1c[nH]cn1)C(=O)N[C@H](Cc1c[nH]c2ccccc12)C(=O)N1CCC[C@@H]1C(=O)N[C@H](CCCNC(=N)N)C(=O)N[C@H](CCCNC(=N)N)C(=O)N[C@H](CCCNC(=N)N)C(=O)O [QF2D-2]
- Fluorescence intensity of the steady state, % of that measured for ARQ46 (L-ARQ46 [1]; at 90 h, equimolar, 15 µM ARQ46 and 15 µM peptide, TBS pH 7.5, 37 °C, λex 410 nm, λem 482 nm, three-fold determination): approx. 70%
- Kd (L-ARQ46 [5]): 11 µM
- Reduction of slope compared to QBP1 (L-ARQ46 [2]; [7]): 86%
- Reduction of slope compared with P8 (L-ARQ46 [2]; [7]): 96%

Compound: KKQQQQQQQQQQQQQQQQQQQQQQQ QQQQQQQQQQQQQQQQQQQQQQQKK [L-K2Q46K2, universal polyglutamine peptide]
- Spontaneous aggregation [3]: spontaneously formed amyloid fibrils after few hours lag time

Compound: SNWKWWPGIFD [QBP1]
- Neurological effect in mouse model [6]: did not yield beneficial neurological effects
- Therapeutic effect in Drosophila (Drosophila): had a therapeutic effect in Drosophila
- Effect on aggregation of monomeric ARQ46 (repeat with controls) (L-ARQ46 [1]; unseeded, ratio not stated, data not shown): drastically inhibited the aggregation
- Inhibition of polyglutamine aggregation (polyglutamine proteins): claimed to inhibit the aggregation of polyglutamine proteins
- Effect in presence of soluble aggregate fragments relative to selected peptides (L-ARQ46 [2]; soluble aggregate seeds): considerably smaller than that of the selected peptides
